Results reported in US8889704B2 (Array BioPharma Inc., priority 2011, dated 2014).
Structures can show the parent of a compound that is named as a salt.

What was measured:
Format in all cases: biochemical
recombinant rat PIM-3 = recombinant rat PIM-3 (Rattus norvegicus, UniProt O70444); assay: PIM-3 Assay (as Example A); details: averaged IC50; 30 μM ATP, 3.75 μM PIM2tide, 0.5 nM PIM-3
Method in brief: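 Recombinant rat PIM-3 (0.5 nM) with 3.75 μM PIM2tide and 30 μM [γ-33P]ATP in MOPS pH 7.4 buffer, 60 min at 22 °C; labelled peptide captured on phosphocellulose filters and counted by scintillation. 10-point curve (top dose 10 μM, 2% DMSO); IC50 from 4-parameter fit of percent of control.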

[1] = biological target: T1, GST-tagged recombinant full-length human Pim-2 (Homo sapiens, UniProt Q9P1W9); assay: PIM-2 Assay (as Example A); details: averaged IC50; 4 μM ATP, 1.0 μM PIM2tide, 1.5 nM Pim-2
T1 construct: GST-tagged recombinant full-length human Pim-2; GST
T1 sequence (Q9P1W9 whole entry): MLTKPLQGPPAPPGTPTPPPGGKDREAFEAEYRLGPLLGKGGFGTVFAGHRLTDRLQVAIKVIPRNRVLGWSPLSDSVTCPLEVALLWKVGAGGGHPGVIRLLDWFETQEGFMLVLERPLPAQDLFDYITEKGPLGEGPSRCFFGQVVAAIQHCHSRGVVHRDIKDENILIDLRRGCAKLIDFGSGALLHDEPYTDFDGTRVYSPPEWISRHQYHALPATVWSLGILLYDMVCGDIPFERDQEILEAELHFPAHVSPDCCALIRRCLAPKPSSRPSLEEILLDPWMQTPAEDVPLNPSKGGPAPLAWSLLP
Method in brief: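 Radiometric filter-binding assay: GST-tagged full-length human Pim-2 (1.5 nM) phosphorylates 1.0 μM PIM2tide with 4 μM [γ-33P]ATP for 60 min at 22 °C in pH 7.4 MOPS buffer, 2% DMSO. 10-point 3-fold dilutions from 10 μM top dose; IC50 from 4-parameter fit of percent of control.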

PIM-1 = PIM-1 (Homo sapiens, UniProt P11309); assay: Enzyme PIM-1 Assay ([33P]ATP incorporation into PIM2tide, filter plate); details: averaged IC50; 35 μM ATP, 7.5 μM PIM2tide, 0.25 nM PIM-1, 60 min at 22° C.
PIM-1, sequence (P11309 whole entry, species assumed): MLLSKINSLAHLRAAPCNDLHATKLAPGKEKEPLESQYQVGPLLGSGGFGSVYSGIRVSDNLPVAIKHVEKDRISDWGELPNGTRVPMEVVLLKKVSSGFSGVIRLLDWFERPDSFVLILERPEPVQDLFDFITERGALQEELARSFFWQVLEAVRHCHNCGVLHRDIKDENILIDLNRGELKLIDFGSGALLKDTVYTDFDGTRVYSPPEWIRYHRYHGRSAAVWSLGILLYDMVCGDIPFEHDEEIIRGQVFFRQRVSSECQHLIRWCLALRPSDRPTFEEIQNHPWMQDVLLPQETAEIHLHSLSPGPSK
Method in brief: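 Radiometric assay: 0.25 nM PIM-1 phosphorylates 7.5 μM PIM2tide with 35 μM [γ-33P]ATP in 20 mM MOPS pH 7.4, 10 mM MgCl2, 1 mM DTT, 0.005% Tween-20, 60 min at 22 °C. Product captured on P81 filters, scintillation counted; 10-point 3-fold curve from 10 μM top, 2% DMSO, IC50 by 4-parameter logistic fit of POC.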

Structure (SMILES) | IC50 (recombinant rat PIM-3) [nM] | IC50 [1] [nM] | IC50 (PIM-1) [nM]
COc1cc2nc(-c3nnc4ccc([C@@H](N5CC[C@H](N)C5)C(F)(F)F)cn34)ccc2cc1C [Example 138, (S)-1-((R)-2,2,2-trifluoro-1-(3-(7-methoxy-6-methylquinolin-2-yl)-[1,2,4]triazolo[4,3-a]pyridin-6-yl)ethyl)pyrrolidin-3-amine hydrochloride] | 9.5 | > 100 | 2.03
N[C@H]1CCN([C@H](c2ccc3nnc(-c4ccc5ccc(C6CC6)cc5n4)n3c2)C(F)(F)F)C1 (single isomer, unassigned) [Example 13] | 1 | 121 | 0.31
Cn1cc(-c2ccc3ccc(-c4nnc5ccc([C@H](N6CC[C@H](N)C6)C(F)(F)F)cn45)nc3c2)cn1 (single isomer, unassigned) [Example 14, tri-hydrochloride] | 0.4 | 76 | 0.15
COCc1cccc2ccc(-c3nnc4ccc([C@@H](N5CC[C@H](N)C5)C(F)(F)F)cn34)nc12 [Example 185, (S)-1-((R)-2,2,2-trifluoro-1-(3-(8-(methoxymethyl)quinolin-2-yl)-[1,2,4]triazolo[4,3-a]pyridin-6-yl)ethyl)pyrrolidin-3-amine dihydrochloride] | 1 | > 100 | 0.37
COc1cccc2ccc(-c3nnc4ccc([C@@H](N5CC[C@](N)(CF)C5)C(F)(F)F)cn34)nc12 (single isomer, unassigned) [Example 170] | 6.2 | > 100 | 0.95
CC(C)(C)NC(=O)c1ccc2ccc(-c3nnc4ccc([C@@H](N5CC[C@H](N)C5)C(F)(F)F)cn34)nc2c1C1CC1 [Example 83, 2-(6-((R)-1-((S)-3-aminopyrrolidin-1-yl)-2,2,2-trifluoroethyl)-[1,2,4]triazolo[4,3-a]pyridin-3-yl)-N-tert-butyl-8-cyclopropylquinoline-7-carboxamide dihydrochloride] | 1 | 28 | 1.13
N[C@H]1CCN([C@H](c2ccc3nnc(-c4ccc5cc(F)c(OCC6CC6)cc5n4)n3c2)C(F)(F)F)C1 [Example 134, (S)-1-((R)-1-(3-(7-(cyclopropylmethoxy)-6-fluoroquinolin-2-yl)-[1,2,4]triazolo[4,3-a]pyridin-6-yl)-2,2,2-trifluoroethyl)pyrrolidin-3-amine hydrochloride] | 0.6 | 48 | 0.38
CC(C)Oc1cc2nc(-c3nnc4ccc([C@@H](N5CC[C@H](N)C5)C(F)(F)F)cn34)ccc2cc1F [Example 119, (S)-1-((R)-2,2,2-trifluoro-1-(3-(6-fluoro-7-isopropoxyquinolin-2-yl)-[1,2,4]triazolo[4,3-a]pyridin-6-yl)ethyl)pyrrolidin-3-amine hydrochloride] | 0.9 | 23 | 0.21
CC(C)(C#N)c1cccc2ccc(-c3nnc4ccc([C@@H](N5CC[C@H](N)C5)C(F)(F)F)cn34)nc12 [Example 99, 2-(2-(6-((R)-1-((S)-3-aminopyrrolidin-1-yl)-2,2,2-trifluoroethyl)-[1,2,4]triazolo[4,3-a]pyridin-3-yl)quinolin-8-yl)-2-methylpropanenitrile dihydrochloride] | 0.6 | 55 | 0.11
CC(C)C(=O)Nc1ccc2ccc(-c3nnc4ccc([C@@H](N5CC[C@H](N)C5)C(F)(F)F)cn34)nc2c1 [Example 70, N-(2-(6-((R)-1-((S)-3-aminopyrrolidin-1-yl)-2,2,2-trifluoroethyl)-[1,2,4]triazolo[4,3-a]pyridin-3-yl)quinolin-7-yl)isobutyramide] | 0.3 | > 100 | 0.18
CN(C)C(=O)Cc1cccc2ccc(-c3nnc4ccc([C@@H](N5CC[C@H](N)C5)C(F)(F)F)cn34)nc12 [Example 234, 2-(2-(6-((R)-1-((S)-3-aminopyrrolidin-1-yl)-2,2,2-trifluoroethyl)-[1,2,4]triazolo[4,3-a]pyridin-3-yl)quinolin-8-yl)-N,N-dimethylacetamide dihydrochloride] | 33 | > 1000 | 8.22
Cc1nn(C)cc1-c1cc2nc(-c3nnc4ccc([C@@H](N5CC[C@H](N)C5)C(F)(F)F)cn34)ccc2cc1F [Example 205, (3 S)-1-((1R)-1-(3-(7-(1,3-dimethyl-1H-pyrazol-4-yl)-6-fluoroquinolin-2-yl)-[1,2,4]triazolo[4,3-a]pyridin-6-yl)-2,2,2-trifluoroethyl)pyrrolidin-3-amine dihydrochloride] | 0.2 | 244 | 0.14
COCCOc1cc(F)cc2ccc(-c3nnc4ccc([C@@H](N5CC[C@H](N)C5)C(F)(F)F)cn34)nc12 [Example 98, (S)-1-((R)-2,2,2-trifluoro-1-(3-(6-fluoro-8-(2-methoxyethoxy)quinolin-2-yl)-[1,2,4]triazolo[4,3-a]pyridin-6-yl)ethyl)pyrrolidin-3-amine hydrochloride] | 1.8 | > 100 | 0.38
N[C@H]1CCN([C@H](c2ccc3nnc(-c4ccc5cc(F)c(OC(F)F)cc5n4)n3c2)C(F)(F)F)C1 [Example 215, (S)-1-((R)-1-(3-(7-(difluoromethoxy)-6-fluoroquinolin-2-yl)-[1,2,4]triazolo[4,3-a]pyridin-6-yl)-2,2,2-trifluoroethyl)pyrrolidin-3-amine dihydrochloride] | 3.1 | > 1000 | 0.47
CCOc1cc2nc(-c3nnc4ccc([C@H](N5CC[C@@](C)(N)C5)C(F)(F)F)cn34)ccc2cc1F [Example 294, (R)-1-((S)-1-(3-(7-ethoxy-6-fluoroquinolin-2-yl)-[1,2,4]triazolo[4,3-a]pyridin-6-yl)-2,2,2-trifluoroethyl)-3-methylpyrrolidin-3-amine hydrochloride] | 0.7 | 94 | 0.53
CN[C@H]1CCN([C@H](c2ccc3nnc(-c4ccc5ccc(C(=O)NC(C)C)cc5n4)n3c2)C(F)(F)F)C1 [Example 57, N-isopropyl-2-(6-((R)-2,2,2-trifluoro-1-((S)-3-(methylamino)pyrrolidin-1-yl)ethyl)-[1,2,4]triazolo[4,3-a]pyridin-3-yl)quinoline-7-carboxamide] | 0.9 | > 100 | 0.45
COc1cc(F)cc2ccc(-c3nnc4ccc([C@@H](N5CC[C@](C)(N)C5)C(F)(F)F)cn34)nc12 [Example 248, (S)-3-methyl-1-((R)-2,2,2-trifluoro-1-(3-(6-fluoro-8-methoxyquinolin-2-yl)-[1,2,4]triazolo[4,3-a]pyridin-6-yl)ethyl)pyrrolidin-3-amine dihydrochloride] | 8.1 | > 1000 | 1.17
N[C@H]1CCN([C@H](c2ccc3nnc(-c4ccc5cc(F)cc(O)c5n4)n3c2)C(F)(F)F)C1 [Example 163, 2-(6-((R)-1-((S)-3-aminopyrrolidin-1-yl)-2,2,2-trifluoroethyl)-[1,2,4]triazolo[4,3-a]pyridin-3-yl)-6-fluoroquinolin-8-ol hydrochloride] | 10 | > 100 | 0.3
COCC(C)Oc1cccc2ccc(-c3nnc4ccc([C@@H](N5CC[C@H](N)C5)C(F)(F)F)cn34)nc12 (stereo partly drawn) [Example 118, (3S)-1-((1R)-2,2,2-trifluoro-1-(3-(8-(1-methoxypropan-2-yloxy)quinolin-2-yl)-[1,2,4]triazolo[4,3-a]pyridin-6-yl)ethyl)pyrrolidin-3-amine hydrochloride] | 0.8 | 72 | 0.11
COCC(C)(C)Oc1cc(F)cc2ccc(-c3nnc4ccc([C@@H](N5CC[C@H](N)C5)C(F)(F)F)cn34)nc12 [Example 264, (S)-1-((R)-2,2,2-trifluoro-1-(3-(6-fluoro-8-(1-methoxy-2-methylpropan-2-yloxy)quinolin-2-yl)-[1,2,4]triazolo[4,3-a]pyridin-6-yl)ethyl)pyrrolidin-3-amine formate] | 1.3 | 255 | 0.54
COCCc1cc2nc(-c3nnc4ccc([C@H](N5CC[C@](C)(N)C5)C(F)(F)F)cn34)ccc2cc1F [Example 284, (S)-3-methyl-1-((S)-2,2,2-trifluoro-1-(3-(6-fluoro-7-(2-methoxyethyl)quinolin-2-yl)-[1,2,4]triazolo[4,3-a]pyridin-6-yl)ethyl)pyrrolidin-3-amine dihydrochloride] | 0.4 | 50 | 0.28
CC(C)c1cccc2ccc(-c3nnc4ccc([C@@H](N5CC[C@H](N)C5)C(F)(F)F)cn34)nc12 [Example 41, (S)-1-((R)-2,2,2-trifluoro-1-(3-(8-isopropylquinolin-2-yl)-[1,2,4]triazolo[4,3-a]pyridin-6-yl)ethyl)pyrrolidin-3-amine dihydrochloride] | 2 | 16 | 0.11
